Measurements taken from US10759794B2, “2-phenyl-3-(piperazinomethyl)imidazo[1,2-A]pyridine derivatives as blockers of task-1 and task-2 channels, for the treatment of sleep-related breathing disorders” (BAYER PHARMA AKTIENGESELLSCHAFT, priority 2015, dated 2020).

How the values were obtained:
Type in all cases: cell-based
human TASK-1 [1] = target: T1, human TASK-1 (Homo sapiens (Human), UniProt O14649); experiment: Two-electrode voltage clamp analysis of human TASK-1 channels in Xenopus laevis oocytes
T1 sequence (O14649 whole entry): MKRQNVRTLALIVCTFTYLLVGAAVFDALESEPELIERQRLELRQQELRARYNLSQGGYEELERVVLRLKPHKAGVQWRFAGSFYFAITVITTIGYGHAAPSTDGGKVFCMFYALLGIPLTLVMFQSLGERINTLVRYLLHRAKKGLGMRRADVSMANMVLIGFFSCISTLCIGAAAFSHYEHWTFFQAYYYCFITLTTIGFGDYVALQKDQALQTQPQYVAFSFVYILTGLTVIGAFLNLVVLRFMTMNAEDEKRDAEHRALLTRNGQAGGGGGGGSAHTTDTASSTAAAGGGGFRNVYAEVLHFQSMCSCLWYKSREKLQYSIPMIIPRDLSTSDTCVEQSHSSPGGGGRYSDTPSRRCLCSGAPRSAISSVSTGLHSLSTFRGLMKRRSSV
Procedure: (§1) B-1. In Vitro Electrophysiological Analysis of the Human TASK-1 and TASK-3 Channels Via Two-Electrode Voltage Clamp Technique in Xenopus laevis Oocytes
(§2) Xenopus laevis oocytes were selected as described elsewhere in an exemplary manner [Decher et al., FEBS Lett. 492, 84-89 (2001)]. Subsequently, the oocytes were injected with 0.5-5 ng of a cRNA solution coding for TASK-1 or TASK-3. For the electrophysiological analysis of the channel proteins expressed in the oocytes, the two-electrode voltage clamp technique [Stühmer, Methods Enzymol. 207, 319-339 (1992)] was used. The measurements were carried out as described [Decher et al., FEBS Lett. 492, 84-89 (2001)] at room temperature (21-22° C.) using a Turbo TEC 10CD amplifier (NPI), recorded at 2 kHz and filtered with 0.4 kHz. Substance administration was performed using a gravitation-driven perfusion system. Here, the oocyte is located in a measuring chamber and exposed to the solvent stream of 10 ml/min. The level in the measuring chamber is monitored and regulated by sucking off the solution using a peristaltic pump.

human TASK-1 [2] = target: T1, human TASK-1; experiment: Inhibition of recombinant TASK-1 in stably transfected CHO cells (voltage-sensitive dye, FLIPR); settings: depolarization induced by 40 mM potassium chloride, Table 2A
Procedure: (§3) B-2. Inhibition of Recombinant TASK-1 and TASK-3 In Vitro
(§4) The investigations on the inhibition of the recombinant TASK-1 and TASK-3 channels were carried out using stably transfected CHO cells. Here, the compounds according to the invention were tested with administration of 40 mM of potassium chloride in the presence of a voltage-sensitive dye using the method described in detail in the following references [Whiteaker et al., Validation of FLIPR membrane potential dye for high-throughput screening of potassium channel modulators, J. Biomol. Screen. 6 (5), 305-312 (2001); Molecular Devices FLIPR Application Note: Measuring membrane potential using the FLIPR® membrane potential assay kit on Fluorometric Imaging Plate Reader (FLIPR®) systems, http://www.moleculardevices.com/reagents-supplies/assay-kits/ion-channels/flipr-membrane-potential-assay-kits]. The activity of the test substances was determined as their ability to inhibit a depolarization induced in the recombinant cells by 40 mM potassium chloride. The concentration which can block half of this depolarization is referred to as IC50.

human TASK-3 [3] = target: T2, human TASK-3 (Homo sapiens (Human), UniProt Q9NPC2); experiment: Inhibition of recombinant TASK-3 in stably transfected CHO cells (voltage-sensitive dye, FLIPR); settings: depolarization induced by 40 mM potassium chloride, Table 2A
T2 sequence (Q9NPC2 whole entry): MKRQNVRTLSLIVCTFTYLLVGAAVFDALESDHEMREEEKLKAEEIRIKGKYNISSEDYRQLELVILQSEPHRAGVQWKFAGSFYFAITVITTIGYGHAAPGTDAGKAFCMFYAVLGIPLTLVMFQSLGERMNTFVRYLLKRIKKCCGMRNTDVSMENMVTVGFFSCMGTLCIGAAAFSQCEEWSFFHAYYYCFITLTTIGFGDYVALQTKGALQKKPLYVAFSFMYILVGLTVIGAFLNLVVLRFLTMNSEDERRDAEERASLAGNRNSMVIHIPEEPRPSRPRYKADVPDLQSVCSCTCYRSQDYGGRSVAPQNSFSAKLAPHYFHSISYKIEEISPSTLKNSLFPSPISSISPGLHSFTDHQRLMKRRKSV
Procedure: as §3, §4

human TASK-3 [4] = target: T2, human TASK-3; experiment: Two-electrode voltage clamp analysis of human TASK-3 channels in Xenopus laevis oocytes
Procedure: as §1, §2

[5] = Xenopus laevis oocytes, two-electrode voltage clamp, room temperature, Table 1A
[6] = 1 μM, oocytes, voltage clamp, Table 1B
[7] = 10 μM, oocytes, voltage clamp, Table 1B
[8] = oocytes, voltage clamp, comparative compounds, Table 1B

Row | Structure (SMILES) | IC50 (human TASK-1 [1]; [5]) [nM] | IC50 (human TASK-1 [2]) [nM] | IC50 (human TASK-3 [3]) [nM] | IC50 (human TASK-3 [4]; [5]) [nM] | inhibition at 1 µM (human TASK-1 [1]; [6]) [%] | inhibition at 10 µM (human TASK-1 [1]; [7]) [%] | IC50 (human TASK-1 [1]; [8]) [nM] | inhibition at 1 µM (human TASK-3 [4]; [6]) [%] | inhibition at 10 µM (human TASK-3 [4]; [7]) [%] | IC50 (human TASK-3 [4]; [8]) [nM]
1 | CC(C)c1ccc(-c2nc3ccccn3c2CN2CCN(C(=O)C3CCCC3)CC2)cc1 [Example 54] | 4.3 ± 1.3 | 479 | 225 | 38.2 ± 1.4 | – | – | – | – | – | –
2 | CC(C)Oc1cccc(C(=O)N2CCN(Cc3c(-c4ccc(Cl)cc4)nc4ccccn34)CC2)n1 [Example 39] | 13.4 ± 0.9 | 440 | 56 | 6.2 ± 1.1 | – | – | – | – | – | –
3 | COc1cccc(C(=O)N2CCN(Cc3c(-c4ccc(Br)cc4)nc4ccccn34)CC2)n1 [Example 47] | 4.9 ± 0.4 | 140 | 18 | 2.3 ± 0.3 | – | – | – | – | – | –
4 | O=C(C1CCCC1)N1CCN(Cc2c(-c3ccc(Br)cc3)nc3ccccn23)CC1 [Example 1, (4-{[2-(4-Bromophenyl)imidazo[,2-a]pyridin-3-yl]methyl}piperazin-1-yl)(cyclopentyl)methanone] | 7.9 ± 0.5 | 77 | 17 | 1.04 ± 0.23 | – | – | – | – | – | –
5 | O=C(c1ccccc1F)N1CCN(Cc2c(-c3ccc(Br)cc3)nc3ccccn23)CC1 [Example 4, (4-{[2-(4-Bromophenyl)imidazo [1,2-a]pyridin-3-yl]methyl}piperazin-1-yl)(2-fluorophenyl)methanone] | 9.7 ± 0.9 | 172 | 46 | 15 ± 2.1 | – | – | – | – | – | –
6 | COc1cccc(C(=O)N2CCN(Cc3c(-c4ccc(C(C)C)cc4)nc4ccccn34)CC2)n1 [Example 55] | 45 ± 6.7 | 490 | 141 | 79.6 ± 10.8 | – | – | – | – | – | –
7 | O=C(C1CCCC1)N1CCN(Cc2c(-c3ccc(Cl)cc3)nc3ccccn23)CC1 [Example 2, (4-{[2-(4-Chlorophenyl)imidazo [1,2-a]pyridin-3-yl]methyl}piperazin-1-yl)(cyclopentyl)methanone] | 2.8 ± 1.1 | 63 | 20 | 21.8 ± 2.1 | – | – | – | – | – | –
8 | COc1cccc(-c2nc3ccccn3c2CN2CCN(C(=O)C3CCC3)CC2)c1 [drawing 125] | – | – | – | – | 49.6 ± 6.7 | 75 ± 3.5 | > 1000 | 34.6 ± 2.7 | 73.6 ± 3.7 | > 1000
9 | COc1cccc(C(=O)N2CCN(Cc3c(-c4ccc(Cl)cc4)nc4ccccn34)CC2)n1 [Example 3, (4-{[2-(4-Chlorophenyl)imidazo [1,2-a]pyridin-3-yl]methyl}piperazin-1-yl)(6-methoxypyridin-2-yl)methanone] | 4.2 ± 0.6 | 139 | 28 | 27.9 ± 4 | – | – | – | – | – | –
